For series [1] the following is noted: in benzol, standard to estimate γ; cited from earlier work.
For series [2], the system named is transporter of restored vectors (TRV). The settings on record: cited from earlier work; for Km: read-out: KM (affinity of the carrier TRV).
Series [3] deals with HeLa tumor cells. Description: Cytotoxicity (antiproliferative assay) in the absence of light exposure. It is filed as cell-based. The settings on record: for number of HeLa cells: no light, 24 hours. The procedure: Cytotoxicity was analyzed, considering the intensity of proliferative processes in cells, photosensitizer concentration, and dose of optical power. For each point, 3 flasks with cell monolayer were used.
The monolayer culture of HeLa tumor cells was chosen and used as the cell.
The culture of HeLa tumor cells was grown in nutrient medium 199 or in nutrient medium containing hemohydrolyzate supplemented with 10% fetal bovine serum and […] of kanamycin. […]
Flasks with light-protective cover (dark cytotoxicity) were incubated at 37.5° C. for 1 hour. The cells were washed with Hank's solution 4 times. 2.0 ml of fresh nutrient medium were added, and the cells were irradiated at the temperature of melting ice for 5, 10, 15 or 20 mins by the light flux of a “METALAZ” laser medical device (wavelength: 627.8 nm, 578.2 or 510.6 nm) or “LD 680-2000” (wavelength: 670-690 nm), depending on the wavelength of maximum spectral absorption of the studied photosensitizer, at a dose of 40 J/cm^2. After 20-24 hours, the number of tumor cell was counted in Goriaev's chamber.

In series [4] the test system is HeLa cell culture. Description: Phototoxicity (photodynamic activity), 3.5 h incubation, 3.3 joule/cm^2. It is filed as cell-based. On the set-up: number of HELA cells relative to the control: unit not given here. The settings on record: 3.5 hours incubation, photoexposure 3.3 joule/cm^2. The procedure:
To examine the photodynamic effects of a photosensitizer on a HeLa cell culture, the photosensitizer solution was added to the nutrient media at a final concentration of 0.1, 0.5, 1.0, 5.0 or 10 mcg/ml on day 3 after transplanting the cell culture into flasks. The flasks were wrapped with a light protecting cover, and incubated at 37° C. for 3.5 hours. Then, the cells were washed with Hank's solution, and exposed on ice by a laser medical device “LD 680-2000” (wavelength: 670-690 nm) at a dose of 3.3 joule/cm^2. After 20-24 hours, the available cell monolayer was dispersed using a 0.02%-Versene solution, and the number of tumor cells was calculated in Goriaev's chamber. For each point, 3 flasks were used.

The test system of series [5] is Hela cells. Description: Accumulation in Hela cells.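 For concentration in Hela cells: measured as suspension fluorescence intensity at excitation 405 nm and emission 665 nm.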 As to conditions: for concentration in Hela cells: 2×10^−5 M/l, 37° C. The series is classed as cell-based. The method, then:
The cellular accumulation and the targeted delivery of the photoactive compounds were investigated using Hela cells, which is one of the numerous tumor cell types that overexpress folate receptors.
Cells were cultivated for 3 days in medium 199, and transferred to Hank's solution/medium 199 (9/1). After 3 hours, the cell were collected by trypsin treatment from the substrate and placed in Hank's solution (10^5 ? /ml). To cell suspensions, chlorin e6 conjugates were added at a concentration of 2×10^−5 M/l, and incubated at 37° C. After 1, 5, 10, 15, and 24 hours, the samples were centrifuged, the pellet was washed with the cooled Hank's solution, and transferred to Hank's solution at a concentration being equal to that in the initial suspension.

For series [6], the system named is Hela cells. The experiment in a line: Competition assay with exogenous folic acid, uptake in Hela cells. The series is classed as cell-based. The settings on record: 4 μM/l folic acid, 24 hours. From the text:
Then, the sample was centrifuged, the supernatant was taken, and the pellet was rewashed with cooled Hank's solution. The obtained pellet was again transferred into Hank's solution.

The test system of series [7] is Hela cells. The experiment in a line: Phototoxicity, 24 h incubation, 1.5-15 joule/cm^2. It is filed as cell-based. The settings on record: 670-690 nm. The procedure:
In other experiment, the cells were incubated with photosensitizers at 37° C. for 24 hours, and irradiated by exposed on ice by a laser medical device “LD 680-2000” (wavelength of 670-690 nm) in a dose of 1.5-15 joule/cm^2.

A word on the Km: it is the concentration of substrate that gives half-maximal velocity.

Take `CCC1=C(CC)c2cc3[n-]c(cc4nc(cc5[n-]c(cc1n2)c(CC)c5CC)C(CC)=C4CC)c(CC)c3CC.[Pd+2]` [Pd(II)-octa ethyl porphyrin]: the “γ of the standard” value in series [1] is “one”.
Take `CN(Cc1cnc2nc(N)nc(N)c2n1)c1ccc(C(=O)N[C@@H](CCC(=O)O)C(=O)O)cc1` [methotrexate]: in series [2] (tumor cells), the “maximum rate of TRV transport” value is 1-12 nmol/min per cellular protein (g) and the Km was 4 to 8 µM.
Take `Nc1nc(O)c2nc(CNc3ccc(C(=O)N[C@@H](CCC(=O)O)C(=O)O)cc3)cnc2n1` [folic acid, N-[4(2-Amino-4-hydroxypteridin-6-ylmethylamino)benzoyl]-L(+)-glutamic acid]: in series [2], the “affinity of TRV-mediated transport” value is given as “about 200 μM”. Moreover, the Km in series [2] (tumor cells) is 100 to 200 µM.
On to `C=Cc1c(C)c2cc3nc(c(CC(=O)O)c4[nH]c(cc5nc(cc1[nH]2)C(C)=C5CC)c(C)c4C(=O)O)C(CCC(=O)O)C3C` (stereo not drawn) [chlorin e6, 13-carboxy-17-[2-carboxyethyl]-15-carboxymethyl-17,18-trans-dihydro-3-vinyl-8-ethyl-2,7,12,18-tetramethylporphyrin], for which, in series [3] (Hela cells, 24 hr incubation), the “cytotoxicity in the absence of light exposure” value is recorded as “no cytotoxicity”. The cell survival rate entry in series [3] (Hela cells, 24 hr incubation, absence of light exposure) is reported as “about 90%”. Moreover, the “number of HeLa cells” value in series [3] (photosensitizer conc. 1 (μm)) is recorded as 101.3 percentage of the control; in series [3] (photosensitizer conc. 2.5 (μm)), 99.1 percentage of the control; in series [3] (photosensitizer conc. 5.0 (μm)), 98.4 percentage of the control; in series [3] (photosensitizer conc. 10.0 (μm)) it was 95.5 percentage of the control; in series [3] (photosensitizer conc. 20.0 (μm)), 90.0 percentage of the control; in series [3] (photosensitizer conc. 30.0 (μm)), 89.7 percentage of the control. Also, the “number of HELA cells relative to the control” value was found to be 87.1 in series [4] (0.1 mcg/ml); 83.6 in series [4] (0.5 mcg/ml); 64.7 in series [4] (1.0 mcg/ml); 19 in series [4] (5.0 mcg/ml); 3.8 in series [4] (10.0 mcg/ml). Moreover, the “time in which the majority binds with cells” value in series [5] (Hela cells) was at most 5 h. The “concentration in Hela cells” value in series [5] (incubation 1 hour) worked out at 0.86 relative units/10^4 cl; in series [5] (incubation 5 hours), 1.45 relative units/10^4 cl; in series [5] (incubation 10 hours), 1.72 relative units/10^4 cl; in series [5] (incubation 15 hours), 0.81 relative units/10^4 cl; in series [5] (incubation 24 hours), 0.40 relative units/10^4 cl. In addition, the “effect of free folic acid on uptake in Hela cells” value in series [6] is on record as “no significant effect”. In addition, in series [7], the “phototoxicity in survival test” value is reported as “little phototoxicity”.

The record behind these values is patent US8735439B2, “Chlorin e6-folic acid conjugate, preparation method thereof, and a pharmaceutical composition for the treatment of cancer comprising the same” (Diatech Korea Co., Ltd., priority 2009, dated 2014).
